Assay results as given in patent US11053204B2, “Pyrimidinyloxy benzene derivatives as herbicides” (FMC Corporation, priority 2015, dated 2021).

Experiments:
Assay type in all cases: in vivo
[1] = system: lambsquarters (Chenopodium album); test: Test C preemergence, plant response rating; settings: Chenopodium album, pre-emergence, Preemergence
In short: (§1)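 Pre-emergence: seeds sown in loam soil–sand blend or silt loam and sprayed with test chemicals in a non-phytotoxic solvent mixture with surfactant. Post-emergence: plants 2 to 18 cm (1- to 4-leaf stage) in peat-based potting medium, same formulation. Greenhouse 13 to 15 d; visual rating 0 (no effect) to 100 (complete control) versus controls.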

[2] = system: velvetleaf (Abutilon theophrasti); test: Test C preemergence, plant response rating; settings: Abutilon theophrasti, pre-emergence, Preemergence
In short: as §1

[3] = system: blackgrass (Alopecurus myosuroides); test: Test C preemergence, plant response rating; settings: Alopecurus myosuroides, pre-emergence, Preemergence
In short: as §1

[4] = system: oilseed rape (Brassica napus); test: Test C preemergence, plant response rating; settings: Brassica napus, pre-emergence, Preemergence
In short: as §1

[5] = system: ryegrass, Italian (Italian ryegrass, Lolium multiflorum); test: Test C preemergence, plant response rating; settings: Lolium multiflorum, pre-emergence, Preemergence
In short: as §1

[6] = system: foxtail, giant (giant foxtail, Setaria faberii); test: Test C preemergence, plant response rating; settings: Setaria faberi, pre-emergence, Preemergence
In short: as §1

[7] = system: ragweed (common ragweed, Ambrosia elatior); test: Test C preemergence, plant response rating; settings: Ambrosia artemisiifolia, pre-emergence, Preemergence
In short: as §1

[8] = system: waterhemp (common waterhemp, Amaranthus rudis); test: Test C preemergence, plant response rating; settings: Amaranthus tuberculatus, pre-emergence, Preemergence
In short: as §1

[9] = system: morningglory (Ipomoea coccinea); test: Test C preemergence, plant response rating; settings: Ipomoea, pre-emergence, Preemergence
In short: as §1

soybean (Glycine max) = test: Test C preemergence, plant response rating; settings: Glycine max, pre-emergence, Preemergence, scale 0 to 100
In short: as §1

corn (Zea mays) = test: Test C preemergence, plant response rating; settings: Zea mays, pre-emergence, Preemergence
In short: as §1

[10] = system: nutsedge, yellow (yellow nutsedge, Cyperus esculentus); test: Test C preemergence, plant response rating; settings: Cyperus, pre-emergence, Preemergence
In short: as §1

[11] = system: wheat (winter wheat, Triticum aestivum); test: Test C preemergence, plant response rating; settings: Triticum aestivum, pre-emergence, Preemergence
In short: as §1

[12] = system: crabgrass, large (large crabgrass, Digitaria sanguinalis); test: Test C preemergence, plant response rating; settings: Digitaria sanguinalis, pre-emergence, Preemergence
In short: as §1

[13] = system: velvetleaf (Abutilon theophrasti); test: Test C postemergence, plant response rating; settings: Abutilon theophrasti, post-emergence
In short: as §1

[14] = system: blackgrass (Alopecurus myosuroides); test: Test C postemergence, plant response rating; settings: Alopecurus myosuroides, post-emergence
In short: as §1

[15] = system: oilseed rape (Brassica napus); test: Test C postemergence, plant response rating; settings: Brassica napus, post-emergence
In short: as §1

[16] = system: foxtail, giant (giant foxtail, Setaria faberii); test: Test C postemergence, plant response rating; settings: Setaria faberi, post-emergence
In short: as §1

[17] = system: morningglory (Ipomoea coccinea); test: Test C postemergence, plant response rating; settings: Ipomoea, post-emergence
In short: as §1

[18] = system: barnyardgrass (Echinochloa crus-galli); test: Test C postemergence, plant response rating; settings: Echinochloa crus-galli, post-emergence
In short: as §1

[19] = system: wheat (winter wheat, Triticum aestivum); test: Test C postemergence, plant response rating; settings: Triticum aestivum, post-emergence
In short: as §1

[20] = 125 g ai/ha, scale 0 to 100 (0 no effect, 100 complete control)
[21] = 62 g ai/ha, scale 0 to 100 (0 no effect, 100 complete control)

O=C(OCCC(F)(F)F)c1c(Br)cccc1Oc1ncc(Cl)cn1 [Compound 26, 3,3,3-trifluoropropyl 2-bromo-6-[(5-chloro-2-pyrimidinyl)oxy]benzoate]
pest or weed control at 125 g/ha ([1]; 125 g ai/ha, scale of 0 to 100): 95%
pest or weed control at 16 g/ha ([1]; 16 g ai/ha, scale 0 to 100): 70%
pest or weed control at 31 g/ha ([1]; 31 g ai/ha, scale 0 to 100): 85%
pest or weed control at 62 g/ha ([1]; 62 g ai/ha, scale 0 to 100): 95%
pest or weed control at 125 g/ha ([2]; 125 g ai/ha, scale of 0 to 100): 100%
pest or weed control at 16 g/ha ([2]; 16 g ai/ha, scale 0 to 100): 0%
pest or weed control at 31 g/ha ([2]; 31 g ai/ha, scale 0 to 100): 30%
pest or weed control at 62 g/ha ([2]; 62 g ai/ha, scale 0 to 100): 85%
pest or weed control at 62 g/ha ([3]; 62 g ai/ha, scale of 0 to 100): 90%
pest or weed control at 125 g/ha ([3]; 125 g ai/ha, scale of 0 to 100): 90%
pest or weed control at 16 g/ha ([3]; 16 g ai/ha, scale 0 to 100): 45%
pest or weed control at 31 g/ha ([3]; 31 g ai/ha, scale 0 to 100): 90%
plant injury at 125 g/ha ([4]; 125 g ai/ha, scale of 0 to 100): 100%
plant injury at 16 g/ha ([4]; 16 g ai/ha, scale 0 to 100): 80%
plant injury at 31 g/ha ([4]; 31 g ai/ha, scale 0 to 100): 85%
plant injury at 62 g/ha ([4]; 62 g ai/ha, scale 0 to 100): 100%
pest or weed control at 125 g/ha ([5]; 125 g ai/ha, scale of 0 to 100): 95%
pest or weed control at 16 g/ha ([5]; 16 g ai/ha, scale 0 to 100): 35%
pest or weed control at 31 g/ha ([5]; 31 g ai/ha, scale 0 to 100): 75%
pest or weed control at 62 g/ha ([5]; 62 g ai/ha, scale 0 to 100): 85%
pest or weed control at 62 g/ha ([6]; 62 g ai/ha, scale of 0 to 100): 98%
pest or weed control at 125 g/ha ([6]; 125 g ai/ha, scale of 0 to 100): 98%
pest or weed control at 16 g/ha ([6]; 16 g ai/ha, scale 0 to 100): 95%
pest or weed control at 31 g/ha ([6]; 31 g ai/ha, scale 0 to 100): 98%
pest or weed control at 125 g/ha ([7]; 125 g ai/ha, scale of 0 to 100): 50%
pest or weed control at 16 g/ha ([7]; 16 g ai/ha, scale 0 to 100): 20%
pest or weed control at 31 g/ha ([7]; 31 g ai/ha, scale 0 to 100): 30%
pest or weed control at 62 g/ha ([7]; 62 g ai/ha, scale 0 to 100): 60%
pest or weed control at 125 g/ha ([8]; 125 g ai/ha, scale of 0 to 100): 100%
pest or weed control at 16 g/ha ([8]; 16 g ai/ha, scale 0 to 100): 100%
pest or weed control at 31 g/ha ([8]; 31 g ai/ha, scale 0 to 100): 100%
pest or weed control at 62 g/ha ([8]; 62 g ai/ha, scale 0 to 100): 100%
pest or weed control at 125 g/ha ([9]; 125 g ai/ha, scale of 0 to 100): 95%
pest or weed control at 16 g/ha ([9]; 16 g ai/ha, scale 0 to 100): 20%
pest or weed control at 31 g/ha ([9]; 31 g ai/ha, scale 0 to 100): 10%
pest or weed control at 62 g/ha ([9]; 62 g ai/ha, scale 0 to 100): 85%
plant injury at 31 g/ha (soybean (Glycine max); 31 g ai/ha): 10%
plant injury at 62 g/ha (soybean (Glycine max); 62 g ai/ha): 35%
Corn plant response rating (crop injury, 0 = no effect, 100 = complete kill) at 62 g/ha (corn (Zea mays); 62 g ai/ha, scale of 0 to 100): 25%
Corn plant response rating (crop injury, 0 = no effect, 100 = complete kill) at 125 g/ha (corn (Zea mays); 125 g ai/ha, scale of 0 to 100): 40%
Corn plant response rating (crop injury, 0 = no effect, 100 = complete kill) at 16 g/ha (corn (Zea mays); 16 g ai/ha, scale 0 to 100): 0%
Corn plant response rating (crop injury, 0 = no effect, 100 = complete kill) at 31 g/ha (corn (Zea mays); 31 g ai/ha, scale 0 to 100): 0%
pest or weed control at 125 g/ha ([10]; 125 g ai/ha, scale of 0 to 100): 45%
pest or weed control at 16 g/ha ([10]; 16 g ai/ha, scale 0 to 100): 0%
pest or weed control at 31 g/ha ([10]; 31 g ai/ha, scale 0 to 100): 0%
pest or weed control at 62 g/ha ([10]; 62 g ai/ha, scale 0 to 100): 15%
plant injury at 125 g/ha ([11]; 125 g ai/ha, scale of 0 to 100): 15%
plant injury at 16 g/ha ([11]; 16 g ai/ha, scale 0 to 100): 0%
plant injury at 31 g/ha ([11]; 31 g ai/ha, scale 0 to 100): 20%
plant injury at 62 g/ha ([11]; 62 g ai/ha, scale 0 to 100): 5%
pest or weed control at 62 g/ha ([12]; 62 g ai/ha, scale of 0 to 100): 100%
pest or weed control at 125 g/ha ([12]; 125 g ai/ha, scale of 0 to 100): 100%
pest or weed control at 16 g/ha ([12]; 16 g ai/ha, scale 0 to 100): 98%
pest or weed control at 31 g/ha ([12]; 31 g ai/ha, scale 0 to 100): 100%
pest or weed control at 16 g/ha ([13]; 16 g ai/ha, scale 0 to 100): 30%
pest or weed control at 31 g/ha ([13]; 31 g ai/ha, scale 0 to 100): 55%
pest or weed control at 62 g/ha ([13]; 62 g ai/ha, scale 0 to 100 (0 no effect, 100 complete control), read-out: Velvetleaf plant response rating): 75%
pest or weed control at 125 g/ha [13, 20]: 80%
pest or weed control at 16 g/ha ([14]; 16 g ai/ha, scale 0 to 100): 10%
pest or weed control at 31 g/ha ([14]; 31 g ai/ha, scale 0 to 100): 15%
pest or weed control at 62 g/ha [14, 21]: 15%
pest or weed control at 125 g/ha [14, 20]: 35%
plant injury at 16 g/ha ([15]; 16 g ai/ha, scale 0 to 100): 40%
plant injury at 31 g/ha ([15]; 31 g ai/ha, scale 0 to 100): 75%
plant injury at 62 g/ha [15, 21]: 75%
plant injury at 125 g/ha [15, 20]: 80%
pest or weed control at 16 g/ha ([16]; 16 g ai/ha, scale 0 to 100): 10%
pest or weed control at 31 g/ha ([16]; 31 g ai/ha, scale 0 to 100): 10%
pest or weed control at 62 g/ha [16, 21]: 10%
pest or weed control at 125 g/ha [16, 20]: 25%
pest or weed control at 16 g/ha ([17]; 16 g ai/ha, scale 0 to 100): 65%
pest or weed control at 31 g/ha ([17]; 31 g ai/ha, scale 0 to 100): 60%
pest or weed control at 62 g/ha [17, 21]: 65%
pest or weed control at 125 g/ha [17, 20]: 85%
pest or weed control at 16 g/ha ([18]; 16 g ai/ha, scale 0 to 100): 10%
pest or weed control at 31 g/ha ([18]; 31 g ai/ha, scale 0 to 100): 10%
pest or weed control at 62 g/ha [18, 21]: 20%
pest or weed control at 125 g/ha [18, 20]: 30%
plant injury at 16 g/ha ([19]; 16 g ai/ha, scale 0 to 100): 0%
plant injury at 31 g/ha ([19]; 31 g ai/ha, scale 0 to 100): 0%
plant injury at 62 g/ha ([19]; 62 g ai/ha, scale 0 to 100 (0 no effect, 100 complete control), read-out: Wheat plant response rating): 5%
plant injury at 125 g/ha [19, 20]: 10%
